One may read the MIC as the lowest concentration found to suppress growth. Low readings indicate a more susceptible organism, high ones a less susceptible organism.

The subject of data set [1] is Klebsiella pneumoniae ATCC 13883. In words: MIC of antibiotics with or without paenipeptin analogues (potentiation). It is filed as cell-based. The settings on record: K. pneumoniae ATCC 13883; for MIC of antibiotic at 0 μg/ml paenipeptin analogue: antibiotic alone; for Sensitization factor (rifampicin): MIC without / with 4 μg/mL paenipeptin. The source says:
(§1) Gram-negative bacteria, including Acinetobacter and Klebsiella, are intrinsically resistant to the hydrophobic antibiotic rifampicin.

In data set [2] the test system is Acinetobacter baumannii ATCC 19606. The data set is described as above. It is filed as cell-based. The settings on record: A. baumannii ATCC 19606; for MIC of antibiotic at 0 μg/ml paenipeptin analogue: antibiotic alone; for Sensitization factor (rifampicin): MIC without / with 4 μg/mL paenipeptin.
Text: as §1

Data set [3] deals with Enterococcus faecium ATCC 19434. It is filed as cell-based. The settings on record: ATCC 19434.
Protocol: (§2) The minimum inhibitory concentration (MIC) of paenipeptin analogues was determined using the broth microdilution method (Wirker, M. A. Methods for Dilution Antimicrobial Susceptibility Tests for Bacteria that Grow Aerobically: Approved Standard M07-A8; Clinical and Laboratory Standards Institute, Wayne, Pa., 2009). Seven reference strains (Acinetobacter baumannii ATCC 19606, Escherichia coli ATCC 25922, Klebsiella pneumoniae ATCC 13883, Pseudomonas aeruginosa ATCC 27853, Enterococcus faecium ATCC 19434, Staphylococcus aureus ATCC 29213 and methicillin-resistant S. aureus ATCC 43300) were subjected to MIC testing.
(§3) Paenipeptin analogues were two-fold diluted in tryptic soy broth (TSB; Becton Dickinson) and mixed with an equal volume of bacterial suspensions in TSB containing approximately 1.5×10^5 colony-forming units (CFU)/mL in a clear UV-sterilized 96-well microtiter plate (NBS, Corning Inc., Corning, N.Y.). […] The microtiter plate was incubated at 37° C. for 18-20 h.
The test system of data set [4] is Acinetobacter baumannii ATCC 19606. It is filed as cell-based. Particulars: ATCC 19606.
The next data set has as its system rabbit red blood cells. In words: Hemolytic activity. In kind it is cell-based. The settings on record: for Hemolysis: relative to Triton X-100. Here is the method: Hemolytic activity was evaluated using defibrinated rabbit blood in a 96-well plate as described previously. A nonionic surfactant Triton X-100, which is capable of lysing red blood cells (RBCs), was used at 0.1% as a positive control. Briefly, rabbit blood (Hardy Diagnostics, Santa Maria, Calif.) was diluted with phosphate buffered saline (PBS; pH 7.2) at a 1:19 ratio (v/v) and free hemoglobin was removed by washing RBCs and centrifugation four times at 1,000×g at 4° C. for 5 min. Aliquots (50 μL) of washed RBCs were incubated with 150 μL two-fold dilutions of paenipeptin analogues at final concentrations of 16-128 μg/mL at 37° C. for 30 min in a microtiter plate (NBS, Corning Inc.). After incubation, treated RBCs were gently mixed by repeated pipetting. Aliquots (20 μL) of the cell suspension were mixed with 200 μL PBS in a new 96-well plate and centrifuged at 2,204×g for 10 min. The supernatant was transferred to a new 96-well plate for absorbance measurement at 415 nm using a Cell Imaging Multimode Reader (Cytation 3, BioTek; Winooski, Vt.). The percent hemolysis observed after exposure to each paenipeptin analogue was calculated relative to Triton X-100.

Data set [5] has as its system methicillin-resistant S. aureus ATCC 43300. It is filed as cell-based, Staphylococcus aureus. The settings on record: ATCC 43300.
The test system of data set [6] is Klebsiella pneumoniae ATCC 13883. It is filed as cell-based. Particulars: ATCC 13883.
Data set [7] has as its system Pseudomonas aeruginosa ATCC 27853. In kind it is cell-based. Particulars: ATCC 27853.
The test system of data set [8] is Staphylococcus aureus ATCC 29213. In kind it is cell-based. The settings on record: ATCC 29213.
Protocol: as §2, §3
Data set [9] relates to Escherichia coli ATCC 25922. In kind it is cell-based. The settings on record: ATCC 25922.

Where a SMILES comes first, the peptide text is derived from it. [ ]: non-standard residue; d: D form. The star is where a group is joined. ξ: configuration not given here. Thr(3ξ) = CC(O)[C@H](N)C(=O)O; Decanoyl = CCCCCCCCCC(=O)*; Heptanoyl = CCCCCCC(=O)*; Octanoyl = CCCCCCCC(=O)*; Orn = NCCC[C@H](N)C(=O)O; Dab = NCC[C@H](N)C(=O)O Some results are limits rather than exact numbers.

Consider `CC[C@H]1OC(=O)[C@H](C)[C@@H](O[C@H]2C[C@@](C)(OC)[C@@H](O)[C@H](C)O2)[C@H](C)[C@@H](O[C@@H]2O[C@H](C)C[C@H](N(C)C)[C@H]2O)[C@](C)(O)C[C@@H](C)C(=O)[C@H](C)[C@@H](O)[C@]1(C)O` [Erythromycin, erythromycin, reference compound], for which the figures for the “MIC of antibiotic at 0 μg/ml paenipeptin analogue” value in [1] and in data set [2] were over 32 μg/ml and 32 μg/ml, respectively.

Consider `CCCCCCCCCC(=O)N[C@@H](CCN)C(=O)N[C@H](C(=O)N[C@H](C(=O)N[C@H](CC(C)C)C(=O)N[C@@H](CC(C)C)C(=O)N[C@@H](CCN)C(=O)N[C@@H](C(=O)N[C@@H](CC(C)C)C(=O)N[C@@H](CO)C(N)=O)C(C)C)C(C)O)[C@@H](C)CC` (stereo partly drawn) [Analogue 13] (Decanoyl-[Dab]I[Thr(3ξ)][dL]L[Dab][dV]LS-NH2), for which the minimal inhibitory concentration (MIC) in data set [3] is at least 32 µg/mL; in data set [4], over 32 µg/mL; in data set [5], over 32 µg/mL; in data set [6], over 32 µg/mL; in [7], over 32 µg/mL; in data set [8] it was over 32 µg/mL. Besides, the MIC in data set [9] was over 32 µg/mL. In addition, the Hemolysis with rabbit red blood cells (16 μg/mL) turned out to be 1.25 ± 0.71%; in the data set with rabbit red blood cells (32 μg/mL), 5.06 ± 1.14%; in the data set on rabbit red blood cells (64 μg/mL), 10.0 ± 1.03%; in the data set with rabbit red blood cells (128 μg/mL), 24.9 ± 2.71%. Besides, the “MIC of rifampicin at 2 μg/mL of paenipeptin analogue” value in [1] and in data set [2] was over 0.125 μg/ml throughout. Also, the “MIC of rifampicin at 4 μg/mL of paenipeptin analogue” value in data set [1] is over 2 μg/ml; in [2] it was over 0.125 μg/ml.

In the case of `CC1(C)S[C@@H]2[C@H](NC(=O)[C@H](N)c3ccccc3)C(=O)N2[C@H]1C(=O)O` [Ampicillin, ampicillin, reference compound], the “MIC of antibiotic at 0 μg/ml paenipeptin analogue” value in data set [1] is reported as 32 μg/ml; in data set [2] it was over 32 μg/ml.

`CCCCCCCC(=O)N[C@@H](CCCN)C(=O)N[C@H](C(=O)N[C@@H](CCCN)C(=O)N[C@H](Cc1ccccc1)C(=O)N[C@@H](CC(C)C)C(=O)N[C@@H](CCCN)C(=O)N[C@@H](C(=O)N[C@@H](CC(C)C)C(=O)N[C@@H](CO)C(N)=O)C(C)C)[C@@H](C)CC` [Analogue 11] (Octanoyl-[Orn]I[Orn][dF]L[Orn][dV]LS-NH2): the minimal inhibitory concentration (MIC) in data set [3], in data set [6] and in data set [8] was over 32 µg/mL in each case. In addition, the Hemolysis in the data set with rabbit red blood cells (16 μg/mL) amounted to 0.86 ± 0.72%; with rabbit red blood cells (32 μg/mL), 0.44 ± 0.30%; in the data set with rabbit red blood cells (64 μg/mL), 0.69 ± 0.64%; in the data set on rabbit red blood cells (128 μg/mL) it was 1.12 ± 0.47%. In addition, the “MIC of rifampicin at 4 μg/mL of paenipeptin analogue” value in [1] is 0.0078-0.0156 μg/ml; in data set [2], 0.0156-0.0313 μg/ml. Moreover, the “Sensitization factor (rifampicin)” value in data set [1] is listed as 1,024-2,048; in data set [2], 512-1,024. Also, in data set [2], the “MIC of rifampicin at 2 μg/mL of paenipeptin analogue” value is 0.0625 μg/ml.

For `CN[C@H](CC(C)C)C(=O)N[C@H]1C(=O)N[C@@H](CC(N)=O)C(=O)N[C@H]2C(=O)N[C@H]3C(=O)N[C@H](C(=O)N[C@H](C(=O)O)c4cc(O)cc(O)c4-c4cc3ccc4O)[C@H](O)c3ccc(c(Cl)c3)Oc3cc2cc(c3O[C@@H]2O[C@H](CO)[C@@H](O)[C@H](O)[C@H]2O[C@H]2C[C@](C)(N)[C@H](O)[C@H](C)O2)Oc2ccc(cc2Cl)[C@H]1O` [Vancomycin, vancomycin, reference compound], the “MIC of antibiotic at 0 μg/ml paenipeptin analogue” value in data set [1] and in [2] was over 32 μg/ml throughout.

For `CCCCCCC(=O)N[C@@H](CCN)C(=O)N[C@H](C(=O)N[C@@H](CCN)C(=O)N[C@H](Cc1ccccc1)C(=O)N[C@@H](CC(C)C)C(=O)N[C@@H](CCN)C(=O)N[C@@H](C(=O)N[C@@H](CC(C)C)C(=O)N[C@@H](CO)C(N)=O)C(C)C)[C@@H](C)CC` [Analogue 3] (Heptanoyl-[Dab]I[Dab][dF]L[Dab][dV]LS-NH2), the MIC in [3], in [4], in data set [5] and in [8] was over 32 µg/mL in each case. Further, the Hemolysis in the data set on rabbit red blood cells (16 μg/mL) came to 0.18 ± 0.54%; in the data set on rabbit red blood cells (32 μg/mL), 0.78 ± 0.30%; with rabbit red blood cells (64 μg/mL), 1.18 ± 0.68%; with rabbit red blood cells (128 μg/mL), 1.77 ± 0.81%. Also, the “hemolytic activity (in words)” value in the data set on rabbit red blood cells (128 μg/mL) is reported as “little hemolysis”. The entries for the “MIC of rifampicin at 2 μg/mL of paenipeptin analogue” value in data set [1] and in [2] were 0.0039 μg/ml and 0.0078 μg/ml, respectively. Also, in data set [1], the “MIC of rifampicin at 4 μg/mL of paenipeptin analogue” value is reported as <0.00098-0.00195 μg/ml. For the same molecule, in data set [2], the “Sensitization factor (rifampicin)” value is given as 4,096.

As for `CCCCCCC(=O)N[C@@H](CCN)C(=O)N[C@@H](Cc1ccccc1)C(=O)N[C@@H](CCN)C(=O)N[C@H](Cc1ccccc1)C(=O)N[C@@H](CC(C)C)C(=O)N[C@@H](CCN)C(=O)N[C@@H](C(=O)N[C@@H](CC(C)C)C(=O)N[C@@H](CO)C(N)=O)C(C)C` [Analogue 4] (Heptanoyl-[Dab]F[Dab][dF]L[Dab][dV]LS-NH2), the minimum inhibitory concentration (MIC) in data set [3] was over 32 µg/mL; in data set [7] it was 2 to 4 µg/mL; in [8] it was at least 32 µg/mL; in [9], 1 to 4 µg/mL. Moreover, the Hemolysis in the data set with rabbit red blood cells (16 μg/mL) worked out at 0.28 ± 1.11%; with rabbit red blood cells (32 μg/mL), 0.49 ± 1.22%; in the data set with rabbit red blood cells (64 μg/mL) it was 0.60 ± 1.35%; with rabbit red blood cells (128 μg/mL), 1.28 ± 1.65%.

As for `CCCCCCC(=O)N[C@@H](CCN)C(=O)N[C@H](C(=O)N[C@@H](CCN)C(=O)N[C@H](Cc1ccccc1)C(=O)N[C@@H](CC(C)C)C(=O)N[C@@H](CCN)C(=O)N[C@@H](C(=O)N[C@@H](CC(C)C)C(=O)N[C@@H](CO)C(N)=O)C(C)C)C(C)C` [Analogue 2] (Heptanoyl-[Dab]V[Dab][dF]L[Dab][dV]LS-NH2), the minimal inhibitory concentration (MIC) in [3], in data set [4], in [5], in data set [6] and in [8] was over 32 µg/mL in each case. Also, the Hemolysis is −0.17 ± 0.19% with rabbit red blood cells (16 μg/mL), 0.32 ± 0.74% in the data set on rabbit red blood cells (32 μg/mL), 0.79 ± 0.63% in the data set with rabbit red blood cells (64 μg/mL) and 0.95 ± 0.45% with rabbit red blood cells (128 μg/mL). Also, the results for the “MIC of rifampicin at 2 μg/mL of paenipeptin analogue” value in data set [1] and in data set [2] were 0.0156 μg/ml and 0.125 μg/ml, respectively. Moreover, the “MIC of rifampicin at 4 μg/mL of paenipeptin analogue” value in data set [1] is listed as 0.0039 μg/ml; in data set [2] it was 0.0313-0.0625 μg/ml. In addition, the “Sensitization factor (rifampicin)” value in data set [1] is listed as 4,096; in data set [2], 256-512.

These data come from patent US11364275B2, “Linear lipopeptide paenipeptins and methods of using the same” (priority 2017, dated 2022).
